# Test results from patent US7718677B2, “Methods and compositions for reduction of side effects of therapeutic treatments” (priority 2007, dated 2010).
# “And” between values parts separate entries of the source, which are not always exact repeats. Equal values may be shown once.
# Legend:
# [1] = system: 6-hydroxydopamine-lesioned rats; settings: ROTOMAX, AccuScan System; n=9; saccharin group 8.2+3.7, no difference
# Protocol: Behavioral assessment of the lesion. As an index of nigrostriatal damage, the rats were tested for rotational behavior 3 and 4 weeks after lesioning. This was done using an automated behavioral measurement apparatus that has four cylindrical chambers (50 cm height×34 cm diameter) (ROTOMAX, AccuScan Instruments Inc. Columbus, Ohio, USA). A rat was placed in one of the chambers for 30 min for acclimatization, after which time amphetamine (4 mg/kg ip) was administered as previously described (Visanji et al., 2006, Neuropharmacology 51:506-516). […] The rats were tested a second time one week later and the data from the two testing periods pooled.
# [2] = system: corticostriatal slices from nonhuman primates; settings: nicotine treatment
# Source text: Brain slices at the level of the globus pallidus have generally been used as they incorporate many of the structures present in basal ganglia motor circuits. This includes glutamatergic inputs from the cortex that densely innervate striatal medium spiny GABAergic neurons and are a determinant of neuronal activity in striatal projection neurons. Synaptic plasticity, defined as long-lasting changes in the efficacy of synaptic transmission, has been identified in corticostriatal slices in vitro in the form of long-term potentiation (LTP), long-term depression (LTD) and depotentiation. In slices from unlesioned rats, high-frequency stimulation (HFS) of glutamatergic corticostriatal afferent fibers can induce both LTD and LTP in striatal medium spiny neurons, most likely due to a release of striatal glutamate which triggers dopamine release. Stimulation of both D1 and D2 receptors is required for the induction of LTD, whereas these two receptor subtypes play opposing roles in LTP.
# [3] = system: MPTP-lesioned squirrel monkeys; experiment: Parkinsonism rating on or off levodopa in MPTP-lesioned monkeys; format: in vivo, Saimiri sciureus; settings: for Parkinson Ratings Expt 1 / Parkinson Ratings Expt 2 (crossover): individual animals, scale 0-28; for Parkinson Ratings Mean ± SE (n): n=5
# Protocol: 1-Methyl-4-phenyl-1,2,3,6-tetrahydropyridine (MPTP) administration: Prior to lesioning, the animals were allowed to acclimate to the colony and rated for parkinsonism as described (Langston et al. Ann Neurol. 2000; 47:S79-89). All values were within the normal range. The monkeys were then injected subcutaneously with 2.0 mg/kg MPTP (Sigma, St-Louis, Mo.) dissolved in saline. The animals were rated for parkinsonism 3-4 weeks after MPTP administration. The disability scores ranged from 0 (normal) to 28 for a severely parkinsonian animal. Animals were assessed for 1) spatial hypokinesia (reduction in use of the available cage space), 2) body bradykinesia (increased slowness in body movement), 3) left and 4) right manual dexterity, 5) balance, 6) freezing and 7) action tremor. If they were not parkinsonian, MPTP injection (1.0-2.0 mg/kg) was repeated from 2-5 times for total doses of 3.5 to 13.5 mg/kg. Despite multiple MPTP dosing, two of the animals were not stably parkinsonian.
# (§1) Data analyses: The levodopa treatment protocol used in the present study involved a 5-day-on/2-day-off schedule. Parkinsonian ratings were done on Monday and Friday of each week, with the score averaged over the two days. Dyskinesias ratings were determined by averaging the scores on Wednesday and Thursday of each week. All values are expressed as the mean±SE of the indicated number of animals. Results were compared using paired t-tests or analysis of variance (ANOVA) followed by Bonferroni multiple comparison post hoc test, using Prism® program (GraphPad Software, Inc, San Diego, Calif.). A level of 0.05 was considered significant.
# White bars indicate no nicotine treatment and black bars indicate nicotine treatment. Parkinsonism was evaluated immediately before the afternoon L-dopa dose and 1.5 to 2 hours after L-dopa treatment, when a maximal antiparkinsonian effect is anticipated. Two of the seven animals in the study were not parkinsonian, and therefore were not included in this analysis. Error bars are the means±standard error of five animals before and after crossover of nicotine treatment. **p<0.01, as compared with the same group with no L-dopa treatment by a Mann-Withney test.
# [4] = system: levodopa-primed monkeys
# Protocol: Levodopa administration: Monkeys were administered levodopa/carbidopa (5 mg/kg and 1.25 mg/kg, respectively), prepared by crushing a tablet of Sinemet® CR 100/25 (DuPont Pharma) and dissolving it in water. This dose of levodopa is within the range of that prescribed to Parkinson's disease patients. The monkeys were gavaged twice daily at 3.5-hour intervals for 8 weeks at a time using a 5-day-on/2-day-off schedule (Hsu et al., J Pharmacol Exp Ther. 2004; 311:770-777). During levodopa treatment, the monkeys were given fruits in the morning and food pellets 3.5 hours after the afternoon levodopa dose to optimize gastrointestinal absorption.
# Dyskinesias were rated from videotapes, as described (Hsu et al., J Pharmacol Exp Ther. 2004; 311:770-777). This included a one hour baseline period (no drugs) from ˜8:00-9:00 AM, followed by two 3.5-hour treatment periods with levodopa starting at ˜9:00 AM and ˜12:30 PM. Dyskinesias were rated for 2-minute periods at 30-minute intervals by two independent raters blinded to treatment. They were rated on a scale of 0 (no dyskinesias) to 4; a score of 1 was indicative of subtle dyskinesias that were not sustained; 2, mild dyskinesias that were sustained; 3, moderate dyskinesias that impaired the ability to remain stationary; 4, severe dyskinesias that were generalized and incapacitating.
# as §1
# Materials and methods were the same as in example 1.
# A crossover study, was then conducted, in which the animals originally receiving nicotine were given vehicle (n=3), while the vehicle-treated animals were now administered nicotine (n=4). Levodopa treatment was stopped. […] Monkeys that had previously received nicotine were placed on vehicle drinking water for the same time period. All monkeys were then treated with levodopa (5 mg/kg, twice daily 3.5 hours apart) for a subsequent 8-week period. Since both groups of monkeys had previously received levodopa, they were termed levodopa-primed.
# [5] = on levodopa treatment, 1.5-2 hours after dosing
smiles,measurement,setting,value
"CN1CCCC1c1cccnc1 (centres unmarked) [Nicotine, S-3-(1-methyl-2-pyrrolidinyl)pyridine]",extent of turning,[1],8.4+6.7
same,long-term depression (LTD) lost as a result of nigrostriatal damage,[2],restores
same,Parkinson Ratings Expt 1,[3]; no levodopa treatment,5.2 and 6.6
same,Parkinson Ratings Expt 2 (crossover),[3]; no levodopa treatment,4.1 and 6.4 and 5.9
same,Parkinson Ratings Mean ± SE (n),[3]; no levodopa treatment,5.6 ± 0.5 (5)
same,Parkinson Ratings Expt 1,[3]; [5],1.7 and 1.5
same,Parkinson Ratings Expt 2 (crossover),[3]; [5],0.8 (2×) and 0.4
same,Parkinson Ratings Mean ± SE (n),[3]; [5],1.0 ± 0.2 (5)
same,effect on parkinsonism,[3]; on or off levodopa treatment,did not affect
same,total dyskinetic scores after removal of nicotine,"[4]; animals removed from nicotine treatment, week 4, 6 and 8 of levodopa treatment",significantly enhanced
same,reduction of dyskinesias,[4]; levodopa-primed monkeys,~35%
same,duration of dyskinesias,[4]; levodopa-primed monkeys switched to nicotine,decrease
same,peak dyskinesias,"[4]; levodopa-primed monkeys switched to nicotine, last 4 weeks of levodopa treatment",significantly reduced
same,total dyskinesias,"[4]; levodopa-primed monkeys switched to nicotine, vs same animal before crossover, all time points, paired t-tests",significantly reduced
